Results: patent US20220192192A1, “LOW VOLATILITY HERBICIDAL COMPOSITIONS” (Monsanto Technology LLC, priority 2012, published 2022)

Experiment: Measurement of dicamba volatility (humidome): dicamba concentration in air by LC-MS
Format: physicochemical
Conditions: di- and tri-carboxylic acids tested in dicamba compositions
Text: Humidomes obtained from Hummert International (Part Nos 14-3850-2 for humidomes and 11-3050-1 for 1020 flat tray) were modified by cutting a 2.2 cm diameter hole on one end approximately 5 cm from the top to allow for insertion of a glass air sampling tube (22 mm OD) containing a polyurethane foam (PUF) filter. The sampling tube was secured with a VITON o-ring on each side of the humidome wall. The air sampling tube external to the humidome was fitted with tubing that was connected to a vacuum manifold immediately prior to sampling. […] The flat tray bottom containing the dicamba formulation on soil was covered with the humidome lid and the lid was secured with clamps. The assembled humidomes were placed in a temperature and humidity controlled environment and connected to a vacuum manifold through the air sampling line. Air was drawn through the humidome and PUF at a rate of 2 liters per minute (LPM) for 24 hours at which point the air sampling was stopped. The humidomes were then removed from the controlled environment and the PUF filter was removed. The PUF filter was extracted with 20 mL of methanol and the solution was analyzed for dicamba concentration using LC-MS methods known in the art. […] Where glyphosate was added or was part of the formulation, glyphosate was present at a concentration of 2.4% a.e. or 2.0 lb/A a.e. Where 2,4-D was added or was part of the formulation, 2,4-D was present at 2.4% ae or 2.0 lb/A ae at 10 gallons per acre (GPA). The growth chambers were set at 35° C. and 40% relative humidity (RH). For each composition four separate humidome boxes were sprayed to have 4 replicate measurements for each formulation. Tables 3-1 to 3-12 below provide the mean concentration of dicamba in air for the tested formulations.
In the case of O=C(O)CC(O)(CC(=O)O)C(=O)O [citric acid], the “effect of the acid on dicamba volatility” value is reported as “did not reduce dicamba volatility”.
For O=C(O)CC(O)C(=O)O (stereo not shown) [malic acid], the “effect of the acid on dicamba volatility” value was “did not reduce dicamba volatility”.
With O=C(O)C(=O)O [oxalic acid] the “effect of the acid on dicamba volatility” value was “did not reduce dicamba volatility”.
With O=C(O)CCC(=O)O [succinic acid] the “effect of the acid on dicamba volatility” value was “did not reduce dicamba volatility”.
